Reference: ChEMBL document CHEMBL1159031, “Cytotoxic quassinoids from Cedronia granatensis” (1992)

Key:
Type in all cases: functional
SN12C = assay: Cytotoxicity against human SN12C cells; conditions: read-out: Log10LC50 (converted)
SK-OV-3 = assay: Cytotoxicity against human SKOV3 cells; conditions: read-out: Log10LC50 (converted)
TK-10 = assay: Cytotoxicity against human TK10 cells; conditions: read-out: Log10LC50 (converted)
M14 = assay: Cytotoxicity against human M14 cells; conditions: read-out: Log10LC50 (converted)
[1] = Cytotoxicity against human 786-O cells; conditions: 786-0, read-out: Log10LC50 (converted)
UACC-62 = assay: Cytotoxicity against human UACC62 cells; conditions: read-out: Log10LC50 (converted)
MOLT-4 = assay: Cytotoxicity against human MOLT4 cells; conditions: read-out: Log10LC50 (converted)
CAKI-1 = assay: Cytotoxicity against human Caki1 cells; conditions: read-out: Log10LC50 (converted)
HCC 2998 = assay: Cytotoxicity against human HCC2998 cells; conditions: read-out: Log10LC50 (converted)
[2] = Cytotoxicity against human NCI-H322 cells; conditions: read-out: Log10LC50 (converted)
NCI-H226 = assay: Cytotoxicity against human NCI-H226 cells; conditions: read-out: Log10LC50 (converted)
OVCAR-4 = assay: Cytotoxicity against human OVCAR4 cells; conditions: read-out: Log10LC50 (converted)
A498 = assay: Cytotoxicity against human A498 cells; conditions: read-out: Log10LC50 (converted)
SNB-75 = assay: Cytotoxicity against human SNB75 cells; conditions: read-out: Log10LC50 (converted)
Malme-3M = assay: Cytotoxicity against human MALME-3M cells; conditions: read-out: Log10LC50 (converted)
CCRF-CEM = assay: Cytotoxicity against human CCRF-CEM cells; conditions: read-out: Log10LC50 (converted)
A549 = assay: Cytotoxicity against human A549 cells; conditions: read-out: Log10LC50 (converted)
HCT-15 = assay: Cytotoxicity against human HCT15 cells; conditions: read-out: Log10LC50 (converted)
SNB-78 = assay: Cytotoxicity against human SNB78 cells; conditions: read-out: Log10LC50 (converted)
OVCAR-8 = assay: Cytotoxicity against human OVCAR8 cells; conditions: read-out: Log10LC50 (converted)
SK-MEL-28 = assay: Cytotoxicity against human SK-MEL-28 cells; conditions: read-out: Log10LC50 (converted)
SW-620 = assay: Cytotoxicity against human SW620 cells; conditions: read-out: Log10LC50 (converted)
IGROV-1 = assay: Cytotoxicity against human IGROV1 cells; conditions: read-out: Log10LC50 (converted)
DMS-114 = assay: Cytotoxicity against human DMS114 cells; conditions: read-out: Log10LC50 (converted)
SR = assay: Cytotoxicity against human SR cells; conditions: read-out: Log10LC50 (converted)
RPMI-8226 = assay: Cytotoxicity against human RPMI8226 cells; conditions: read-out: Log10LC50 (converted)
SK-MEL-2 = assay: Cytotoxicity against human SK-MEL-2 cells; conditions: read-out: Log10LC50 (converted)
NCI-H460 = assay: Cytotoxicity against human NCI-H460 cells; conditions: read-out: Log10LC50 (converted)
HL-60(TB) = assay: Cytotoxicity against human HL-60(TB) cells; conditions: read-out: Log10LC50 (converted)
HOP-62 = assay: Cytotoxicity against human HOP62 cells; conditions: read-out: Log10LC50 (converted)
M19-MEL = assay: Cytotoxicity against human M19-MEL cells; conditions: read-out: Log10LC50 (converted)
[3] = Cytotoxicity against human LXFL 529L cells; conditions: read-out: Log10LC50 (converted)
NCI-H23 = assay: Cytotoxicity against human NCI-H23 cells; conditions: read-out: Log10LC50 (converted)
NCI-H522 = assay: Cytotoxicity against human NCI-H522 cells; conditions: read-out: Log10LC50 (converted)
ACHN = assay: Cytotoxicity against human ACHN cells; conditions: read-out: Log10LC50 (converted)
LOX IMVI = assay: Cytotoxicity against human LOXIMVI cells; conditions: read-out: Log10LC50 (converted)
DLD-1 = assay: Cytotoxicity against human DLD1 cells; conditions: read-out: Log10LC50 (converted)
COLO 205 = assay: Cytotoxicity against human COLO205 cells; conditions: read-out: Log10LC50 (converted)
K562 = assay: Cytotoxicity against human K562 cells; conditions: read-out: Log10LC50 (converted)
SF-295 = assay: Cytotoxicity against human SF295 cells; conditions: read-out: Log10LC50 (converted)
KM-20L2 = assay: Cytotoxicity against human KM20L2 cells; conditions: read-out: Log10LC50 (converted)
SK-MEL-5 = assay: Cytotoxicity against human SK-MEL-5 cells; conditions: read-out: Log10LC50 (converted)
OVCAR-5 = assay: Cytotoxicity against human OVCAR5 cells; conditions: read-out: Log10LC50 (converted)
RXF 393 = assay: Cytotoxicity against human RXF393 cells; conditions: read-out: Log10LC50 (converted)
HOP-18 = assay: Cytotoxicity against human HOP18 cells; conditions: read-out: Log10LC50 (converted)
HCT-116 = assay: Cytotoxicity against human HCT116 cells; conditions: read-out: Log10LC50 (converted)
HOP-92 = assay: Cytotoxicity against human HOP92 cells; conditions: read-out: Log10LC50 (converted)
SF-268 = assay: Cytotoxicity against human SF268 cells; conditions: read-out: Log10LC50 (converted)
OVCAR-3 = assay: Cytotoxicity against human OVCAR-3 cells; conditions: read-out: Log10LC50 (converted)
XF498 = assay: Cytotoxicity against human XF498 cells; conditions: read-out: Log10LC50 (converted)
HT-29 = assay: Cytotoxicity against human HT-29 cells; conditions: read-out: Log10LC50 (converted)
EKVX = assay: Cytotoxicity against human EKVX cells; conditions: read-out: Log10LC50 (converted)
UO-31 = assay: Cytotoxicity against human UO31 cells; conditions: read-out: Log10LC50 (converted)
UACC-257 = assay: Cytotoxicity against human UACC257 cells; conditions: read-out: Log10LC50 (converted)
U-251 = assay: Cytotoxicity against human U251 cells; conditions: read-out: Log10LC50 (converted)
KM12 = assay: Cytotoxicity against human KM12 cells; conditions: read-out: Log10LC50 (converted)
SF-539 = assay: Cytotoxicity against human SF539 cells; conditions: read-out: Log10LC50 (converted)
SNB-19 = assay: Cytotoxicity against human SNB19 cells; conditions: read-out: Log10LC50 (converted)
DMS-273 = assay: Cytotoxicity against human DMS273 cells; conditions: read-out: Log10LC50 (converted)
[4] = Cytotoxicity against human RXF631 cells; conditions: RXF 631, read-out: Log10LC50 (converted)

SMILES: COC(=O)[C@@]12OC[C@]34[C@H]([C@@H](O)[C@@H]1O)[C@@]1(C)[C@H](O)C(=O)C=C(C)[C@@H]1C[C@H]3OC(=O)[C@H](OC(C)=O)[C@@H]24 [ISOBRUCEIN B]
- CC50 (SN12C): 42.7 µM
- CC50 (SK-OV-3): 42.7 µM
- CC50 (TK-10): 42.7 µM
- CC50 (M14): 2.29 µM
- CC50 [1]: 33.1 µM
- CC50 (UACC-62): 5.37 µM
- CC50 (MOLT-4): 42.7 µM
- CC50 (CAKI-1): 42.7 µM
- CC50 (HCC 2998): 1.58 µM
- CC50 [2]: 42.7 µM
- CC50 (NCI-H226): 14.1 µM
- CC50 (OVCAR-4): 11 µM
- CC50 (A498): 5.75 µM
- CC50 (SNB-75): 14.1 µM
- CC50 (Malme-3M): 3.02 µM
- CC50 (CCRF-CEM): 42.7 µM
- CC50 (A549): 42.7 µM
- CC50 (HCT-15): 33.1 µM
- CC50 (SNB-78): 42.7 µM
- CC50 (OVCAR-8): 21.9 µM
- CC50 (SK-MEL-28): 3.39 µM
- CC50 (SW-620): 39.8 µM
- CC50 (IGROV-1): 42.7 µM
- CC50 (DMS-114): 1.91 µM
- CC50 (SR): 42.7 µM
- CC50 (RPMI-8226): 42.7 µM
- CC50 (SK-MEL-2): 7.08 µM
- CC50 (NCI-H460): 14.1 µM
- CC50 (HL-60(TB)): 0.347 µM
- CC50 (HOP-62): 42.7 µM
- CC50 (M19-MEL): 4.79 µM
- CC50 [3]: 42.7 µM
- CC50 (NCI-H23): 3.47 µM
- CC50 (NCI-H522): 6.17 µM
- CC50 (ACHN): 42.7 µM
- CC50 (LOX IMVI): 8.51 µM
- CC50 (DLD-1): 42.7 µM
- CC50 (COLO 205): 5.75 µM
- CC50 (K562): 11 µM
- CC50 (SF-295): 32.4 µM
- CC50 (KM-20L2): 42.7 µM
- CC50 (SK-MEL-5): 2.09 µM
- CC50 (OVCAR-5): 42.7 µM
- CC50 (RXF 393): 10 µM
- CC50 (HOP-18): 42.7 µM
- CC50 (HCT-116): 18.2 µM
- CC50 (HOP-92): 42.7 µM
- CC50 (SF-268): 40.7 µM
- CC50 (OVCAR-3): 42.7 µM
- CC50 (XF498): 12 µM
- CC50 (HT-29): 42.7 µM
- CC50 (EKVX): 42.7 µM
- CC50 (UO-31): 42.7 µM
- CC50 (UACC-257): 20.9 µM
- CC50 (U-251): 42.7 µM
- CC50 (KM12): 20.9 µM
- CC50 (SF-539): 1.29 µM
- CC50 (SNB-19): 42.7 µM
- CC50 (DMS-273): 2.69 µM
- CC50 [4]: 42.7 µM

SMILES: COC(=O)[C@]12OC[C@]34[C@H]([C@@H](O)[C@@H]1O)[C@@]1(C)C=C5OC(=O)C=C5[C@@H](C)[C@@H]1C[C@H]3OC(=O)[C@H](OC(C)=O)[C@@H]24 [SERGEOLIDE]
- CC50 (SN12C): 3.98 µM
- CC50 (SK-OV-3): 3.98 µM
- CC50 (TK-10): 3.98 µM
- CC50 (M14): 0.0209 µM
- CC50 [1]: 0.407 µM
- CC50 (UACC-62): 0.0324 µM
- CC50 (MOLT-4): 3.89 µM
- CC50 (CAKI-1): 3.98 µM
- CC50 (HCC 2998): 0.0288 µM
- CC50 [2]: 3.98 µM
- CC50 (NCI-H226): 0.0661 µM
- CC50 (OVCAR-4): 0.0447 µM
- CC50 (A498): 0.0575 µM
- CC50 (SNB-75): 0.0389 µM
- CC50 (Malme-3M): 0.012 µM
- CC50 (CCRF-CEM): 3.98 µM
- CC50 (A549): 3.98 µM
- CC50 (HCT-15): 1.91 µM
- CC50 (SNB-78): 2.51 µM
- CC50 (OVCAR-8): 0.776 µM
- CC50 (SK-MEL-28): 0.12 µM
- CC50 (SW-620): 3.98 µM
- CC50 (IGROV-1): 3.98 µM
- CC50 (DMS-114): 0.0363 µM
- CC50 (SR): 3.98 µM
- CC50 (RPMI-8226): 3.98 µM
- CC50 (SK-MEL-2): 0.0269 µM
- CC50 (NCI-H460): 0.457 µM
- CC50 (HL-60(TB)): 0.0575 µM
- CC50 (HOP-62): 1.91 µM
- CC50 (M19-MEL): 0.0199 µM
- CC50 [3]: 0.0676 µM
- CC50 (NCI-H23): 0.0708 µM
- CC50 (NCI-H522): 0.0158 µM
- CC50 (ACHN): 3.39 µM
- CC50 (LOX IMVI): 0.288 µM
- CC50 (DLD-1): 3.24 µM
- CC50 (COLO 205): 0.0219 µM
- CC50 (K562): 3.98 µM
- CC50 (SF-295): 0.38 µM
- CC50 (KM-20L2): 3.98 µM
- CC50 (SK-MEL-5): 0.00661 µM
- CC50 (OVCAR-5): 3.31 µM
- CC50 (RXF 393): 0.0513 µM
- CC50 (HOP-18): 3.98 µM
- CC50 (HCT-116): 0.129 µM
- CC50 (HOP-92): 3.98 µM
- CC50 (SF-268): 2.09 µM
- CC50 (OVCAR-3): 3.98 µM
- CC50 (XF498): 0.0589 µM
- CC50 (HT-29): 3.8 µM
- CC50 (EKVX): 0.891 µM
- CC50 (UO-31): 2.88 µM
- CC50 (UACC-257): 0.0589 µM
- CC50 (U-251): 3.98 µM
- CC50 (KM12): 0.437 µM
- CC50 (SF-539): 0.0257 µM
- CC50 (SNB-19): 3.98 µM
- CC50 (DMS-273): 0.11 µM
- CC50 [4]: 3.72 µM
